These results are taken from patent publication US12448483B2, “Process for preparing carboxylic acid ester-cross-linked polyglycerol esters of 3-hydroxybutyric acid” (KetoLipix Therapeutics GmbH, priority 2020, dated 2025).

For data set [1] the following is noted: even if several grams are taken; cited from earlier work.
The nature of data set [2]: Viscosity of samples from the structural analysis. It counts as physicochemical. As for the experimental part:
For structural analysis, a monodiglycerol ester of 3-hydroxybutyric acid crosslinked with succinic acid is produced according to synthesis route (A) and characterized by gel permeation chromatography (GPC) and acid number determination.
(§1) Subsequently, in the second method step (b), 100 g of the monodiglycerol ester of 3-hydroxybutyric acid are caused to react with 10 g succinic acid anhydride according to a first batch with stirring at 80° C. for 20 h and the water formed is continuously withdrawn by distillation. A sample is taken for further analysis (Sample A) and then another 7 g succinic acid anhydride are added and caused to react at 120° C. for another 6 h. The water formed is withdrawn by continuous distillation. Then another sample is taken for analysis (sample C).
as §1, with “Furthermore,” for “Subsequently,”, “(b), according to a second approach,” for “(b),”, “with the addition of 100 μL of titanium tetrabutylate (catalyst)” for “according to a first batch”, “(sample B)” for “(Sample A)”, “80°” for “120°”, “D).” for “C).”

Take `CC(O)CC(=O)O` (centres unmarked) [3-hydroxybutyric acid]: the Duration of ketosis entry in data set [1] is on record as “three to four”.

Turning to “monodiglycerol esters of 3-hydroxybutyric acid [Educt]”, the “Viscosity at 25° C.” value in data set [2] is listed as 15,700 Pas.
